Source: patent publication US5389663A, “1-(1h-1,2,4-triazole-yl)-2-propanol compounds” (Takeda Chemical Industries, Ltd., priority 1991, dated 1995)

Experiments:
Candida albicans = experiment: Protective effect against Candida albicans infection in mice; assay type: in vivo, Crj:CDF1 mice; conditions: 168 h, minimum lethal dose of Candida albicans iv, drug once immediately after infection, survival 7 days after infection
Text: Test Method: Five-week old Crj:CDF1 mice were inoculated with the minimum lethal dose of Candida albicans intravenously. The test drug was given once immediately after infection. The effectiveness of the drug was expressed in ED50 values calculated by the Reed and Muench method from the survival rate 7 days after infection.

[1] = test system: Candida albicans IFO 0583; experiment: Paper disc agar diffusion, growth inhibition zone, Candida albicans IFO 0583; assay type: cell-based; conditions: Candida albicans, IFO0583, 48 h, Table 5; Medium A, 28° C., two-day culture, 1000 μ/ml, 8 mm disc; read-out: Diameter of growth-inhibition zone
Experimental: Evaluation of the antifungal activities of the compound of formula (I) was conducted by the following method: a sheet of filter paper disc (manufactured by Toyo Seisakusho, 8 mm in diameter) soaked in a […] solution of a compound of formula (I) in methanol was placed on an agar plate containing various fungi, which was incubated at 28° C. for two days, and the diameter of the growth inhibition zone around the filter paper disc was measured. The following culture media were used: A: yeast nitrogen base agar medium (pH 7.0) B: Sabouraud agar medium
cpd. No. (Medium A, 28° C., two-day culture)

C[C@H]([C@](O)(Cn1cncn1)c1ccc(F)cc1F)S(=O)(=O)NC1CCCCC1 [Compound 6, N-cyclohexyl-[(2R,3R)-3(2,4-difluorophenyl)-3-hydroxy-4-(1H-1,2,4-triazol-1-yl)-2-butane]sulfonamide] showed an ED50 (Candida albicans; po) of 7.07 mg/kg and a zone of inhibition at 1000 µg/mL [1] of 40 mm.

C[C@H]([C@](O)(Cn1cncn1)c1ccc(F)cc1F)S(=O)(=O)N1CCOCC1 [Compound 8, 4-[(2R,3R)-3-(2,4-difluorophenyl)-3-hydroxy-4-(1H-1,2,4-triazol-1-yl)-2-butylsulfonyl]morpholine] showed an ED50 (Candida albicans; po) of 20 mg/kg, an ED50 (Candida albicans; sc) of 28.3 mg/kg and a zone of inhibition at 1000 µg/mL [1] of 40 mm.

C[C@H]([C@](O)(Cn1cncn1)c1ccc(F)cc1F)S(=O)(=O)NC1CC1 [Compound 10, N-cyclopropyl-[(2R,3R)-3-(2,4-difluorophenyl)-3-hydroxy-4-(1H-1,2,4-triazol-1-yl)-2-butane]sulfonamide] showed an ED50 (Candida albicans; po) of 7.07 mg/kg, an ED50 (Candida albicans; sc) of 14.1 mg/kg and a zone of inhibition at 1000 µg/mL [1] of 35 mm.

CNS(=O)(=O)[C@H](C)[C@](O)(Cn1cncn1)c1ccc(F)cc1F [Compound 12, N-methyl-[(2R,3R)-3-(2,4-difluorophenyl)-3-hydroxy-4(1H -1,2,4-triazol-1-yl)-2-butane]sulfonamide] gave an ED50 (Candida albicans; po) of 5 mg/kg and a zone of inhibition at 1000 µg/mL [1] of 37 mm.

For CCNS(=O)(=O)[C@H](C)[C@](O)(Cn1cncn1)c1ccc(F)cc1F [Compound 14, N-ethyl-[(2R,3R)-3-(2,4-difluorophenyl)-3-hydroxy-4-(1H-1,2,4-triazol-1-yl)-2-butane]sulfonamide], the ED50 (Candida albicans; po) was 5 mg/kg and the zone of inhibition at 1000 µg/mL [1] was 38 mm.

Compound CCCNS(=O)(=O)[C@H](C)[C@](O)(Cn1cncn1)c1ccc(F)cc1F [Compound 16, N-propyl-[(2R,3R)-3-(2,4-difluorophenyl)-3-hydroxy-4-(1H-1,2,4-triazol-1-yl)-2butane]sulfonamide] has an ED50 (Candida albicans; po) of 5 mg/kg and a zone of inhibition at 1000 µg/mL [1] of 40 mm.

C[C@H]([C@](O)(Cn1cncn1)c1ccc(F)cc1F)S(=O)(=O)NCC(F)(F)F [Compound 39, N-(2,2,2-trifluoroethyl)-[(2R,3R)-3-(2,4-difluorophenyl)-3-hydroxy-4-(1H-1,2,4-triazol-1-yl)-2-butane]sulfonamide] showed an ED50 (Candida albicans; po) of 8 mg/kg and a zone of inhibition at 1000 µg/mL [1] of 40 mm.

C[C@H]([C@](O)(Cn1cncn1)c1ccc(F)cc1F)S(=O)(=O)N(C)CC(F)(F)F [Compound 46, N-methyl-N-(2,2,2-trifluoroethyl)-[(2R,3R)-3-(2,4-difluorophenyl)-3-hydroxy-4-(1H-1,2,4-triazol-1-yl)-2-butane]sulfonamide] showed an ED50 (Candida albicans; po) of 8 mg/kg and a zone of inhibition at 1000 µg/mL [1] of 45 mm.

CCN(C)S(=O)(=O)[C@H](C)[C@](O)(Cn1cncn1)c1ccc(F)cc1F [Compound 48, N-ethyl-N-methyl[(2R,3R)-3-(2,4-difluorophenyl)-3-hydroxy-4-(1H-1,2,4-triazol-1-yl)-2-butane]sulfonamide] was tested, and the ED50 (Candida albicans; po) was 11.3 mg/kg and the zone of inhibition at 1000 µg/mL [1] was 48 mm.

In the case of C[C@@H](NS(C)(=O)=O)[C@](O)(Cn1cncn1)c1ccc(F)cc1F [Compound 49, N-[(2R,3R)-3-(2,4-difluorophenyl)-3-hydroxy-4-(1H-1,2,4-triazol-1-yl)-2-butyl]methanesulfonamide], the ED50 (Candida albicans; po) is reported as 1.8 mg/kg and the zone of inhibition at 1000 µg/mL [1] is reported as 30 mm.

Compound C[C@@H](NS(=O)(=O)c1ccc([N+](=O)[O-])cc1)[C@](O)(Cn1cncn1)c1ccc(F)cc1F [Compound 51] has an ED50 (Candida albicans; po) of 8 mg/kg and a zone of inhibition at 1000 µg/mL [1] of 38 mm.

C[C@@H](N(C)S(C)(=O)=O)[C@](O)(Cn1cncn1)c1ccc(F)cc1F [Compound 53, N-[(2R,3R)-3-(2,4-difluorophenyl)-3-hydroxy-4-(1H-1,2,4-triazol-1-yl) -2-butyl]-N-methylmethanesulfornamide] showed an ED50 (Candida albicans; po) of 3.5 mg/kg and a zone of inhibition at 1000 µg/mL [1] of 40 mm.

C[C@@H](N(C)S(=O)(=O)CC(F)(F)F)[C@](O)(Cn1cncn1)c1ccc(F)cc1F [Compound 54] showed an ED50 (Candida albicans; po) of 3.5 mg/kg and a zone of inhibition at 1000 µg/mL [1] of 40 mm.

Compound C[C@@H](NS(=O)(=O)CC(F)(F)F)[C@](O)(Cn1cncn1)c1ccc(F)cc1F [Compound 55] has an ED50 (Candida albicans; po) of 2 mg/kg and a zone of inhibition at 1000 µg/mL [1] of 35 mm.

With C[C@H]([C@](O)(Cn1cncn1)c1ccc(F)cc1F)S(=O)(=O)NCc1ccccc1 [Compound 58, N-benzyl-[(2R,3R)-3-(2,4-difluorophenyl)-3-hydroxy-4-(1H-1,2,4-triazol-1-yl)-2-butane]sulfonamide] the ED50 (Candida albicans; po) was 8 mg/kg and the zone of inhibition at 1000 µg/mL [1] was 40 mm.

C[C@H]([C@](O)(Cn1cncn1)c1ccc(F)cc1F)S(=O)(=O)NC(c1ccccc1)c1ccccc1 [Compound 59, N-diphenylmethyl-[(2R,3R)-3-(2,4-difluorophenyl)-3-hydroxy-4-(1H-1,2,4-triazol-1-yl)-2-butane]sulfonamide] gave an ED50 (Candida albicans; po) of 11.3 mg/kg and a zone of inhibition at 1000 µg/mL [1] of 30 mm.

C[C@H]([C@](O)(Cn1cncn1)c1ccc(F)cc1F)S(=O)(=O)N(C)Cc1cccnc1 [Compound 64, N-(3-pyridylmethyl)-N-methyl-[(2R,3R)-3-(2,4-difluorophenyl)-3-hydroxy-4-(1H-1,2,4-triazol-1-yl)-2-butane]sulfonamide] showed an ED50 (Candida albicans; po) of 2.8 mg/kg and a zone of inhibition at 1000 µg/mL [1] of 40 mm.

C[C@H]([C@](O)(Cn1cncn1)c1ccc(F)cc1F)S(N)(=O)=O [Compound 65, (2R,3R)-3-(2,4-difluorophenyl)-3-hydroxy-4-(1H-1,2,4-triazol-1-yl)-2-butanesulfonamide] was tested, and the ED50 (Candida albicans; po) was 11.3 mg/kg and the zone of inhibition at 1000 µg/mL [1] was 30 mm.

C[C@H]([C@](O)(Cn1cncn1)c1ccc(F)cc1F)S(=O)(=O)N1CCN(c2ccc(OCC(F)(F)F)cc2)CC1 [Compound 70, 4-[(2R,3R)-3-(2,4-difluorophenyl)-3-hydroxy-4-(1H-1,2,4-triazol-1-yl)-2-butanesulfonyl]-1-[4-(2,2,2-trifluoroethoxy)phenyl]piperazine] was tested, and the ED50 (Candida albicans; po) was 8 mg/kg and the zone of inhibition at 1000 µg/mL [1] was 42 mm.

Compound C[C@H]([C@](O)(Cn1cncn1)c1ccc(F)cc1F)S(=O)(=O)N1CCN(c2ccc(F)cc2)CC1 [Compound 71, 4-[(2R,3R)-3-(2,4-difluorophenyl)-3-hydroxy-4-(1H-1,2,4-triazol-1-yl)-2-butanesulfonyl]-1(4-fluorophenyl)piperazine] has an ED50 (Candida albicans; po) of 8 mg/kg and a zone of inhibition at 1000 µg/mL [1] of 47 mm.

Compound C[C@H]([C@](O)(Cn1cncn1)c1ccc(F)cc1F)S(=O)(=O)N1CCN(c2ccc(C(F)(F)F)cc2)CC1 [Compound 73, 4-[(2R,3R)-3-(2,4-difluorophenyl)-3-hydroxy-4-(1H-1,2,4-triazol-1-yl)-2-butanesulfonyl]-1-(4-trifluoromethylphenyl)piperazine] has an ED50 (Candida albicans; po) of 6.4 mg/kg and a zone of inhibition at 1000 µg/mL [1] of 32 mm.

C[C@H]([C@](O)(Cn1cncn1)c1ccc(F)cc1F)S(=O)(=O)N(C)Cc1nccn1C [Compound 75] showed an ED50 (Candida albicans; po) of 8 mg/kg and a zone of inhibition at 1000 µg/mL [1] of 34 mm.

With C[C@H]([C@](O)(Cn1cncn1)c1ccc(F)cc1F)S(=O)(=O)N(C)Cc1ccncc1 [Compound 76] the ED50 (Candida albicans; po) was 8 mg/kg and the zone of inhibition at 1000 µg/mL [1] was 40 mm.

C[C@H]([C@](O)(Cn1cncn1)c1ccc(F)cc1F)S(=O)(=O)N(C)Cc1nccs1 [Compound 78] gave an ED50 (Candida albicans; po) of 8 mg/kg and a zone of inhibition at 1000 µg/mL [1] of 40 mm.

With C[C@H]([C@](O)(Cn1ccnc1)c1ccc(F)cc1F)S(=O)(=O)N(C)Cc1ccc(C(F)(F)F)cc1 [Compound 86, N-methyl-N-(4-trifluoromethylbenzyl)-[(2R,3R)-3-(2,4-difluorophenyl)-3-hydroxy-4-(1-imidazolyl)-2-butane]sulfonamide] the ED50 (Candida albicans; po) was 8 mg/kg and the zone of inhibition at 1000 µg/mL [1] was 35 mm.
